Data taken from patent publication US20250170137A1, “Compositions for preventing or treating heart failure (HF)” (CHONG KUN DANG PHARMACEUTICAL CORP., priority 2022, published 2025).

Assays:
[1] = test system: acetyl tubulin in H9c2 cells; experiment: Effect on acetyl tubulin in H9c2 cells (western blot); format: cell-based, Rat; conditions: treated for each concentration, four hours at 37° C., western blot vs GAPDH (FIGS. 1 and 2)
Protocol: H9c2 (2.0×10^5 cells/well, Rat, heart, myoblast) cells were seeded in a six-well plate and treated with drugs (compounds 43, 295, 296, 40, 239, and 285) for each concentration. In four hours later at 37° C., proteins were extracted with lysis buffer and quantified by Bradford method. […] of proteins were dissolved in sample buffer, electrophoresed on 4-12% gradient gel, transferred to a nitrocellulose membrane for seven minutes, and blocked in 3% BSA solution for one hour. Anti-acetyl tubulin (1:1,000) and GAPDH (1:2,000) were added to a 3% BSA solution, after which the membrane was immersed therein and reacted at 4° C. for 10 hours, and then washed three times with 1×TBST for 10 minutes each. IgG-HRP antibody (1:5,000) was added to 5% BSA, after which the membrane was immersed therein and reacted at room temperature for one hour, and then washed three times with 1×TBST for 10 minutes each.

[2] = test system: isolated heart of normal rabbits; experiment: Langendorff evaluation of heart safety (Q-T interval of ECG); parameters: species or system Rabbit; conditions: for Q-T interval: normal rabbit heart, ECG 30 minutes later, n = 6, mean ± standard error; for effect on QT interval compared to normal ECG (in words): dofetilide 0.3 μM and 1 μM, compound 43 1 μM (FIGS. 5 and 6)
Protocol: (§1) The male rabbits were anesthetized by breathing, and the hearts were removed therefrom. After removing the connective tissues, the hearts were perfused with 37° C. physiological solution (modified KrebsHenseleit bicarbonate buffer; composition: 116 mM/L NaCl, 4.7 mM/L KCl, 1.1 mM/L MgSO4, 1.17 mM/L KH2PO4, 24.9 mM/L NaHCO3, 2.52 mM/L CaCl2), 8.32 mM/L glucose) saturated with 95% O2/5% CO2 under constant pressure perfusion, and electrodes were connected at the atrium and ventricle so as to confirm a stabilization state by measuring an electrocardiogram for one hour.
After confirming the stabilization state of the heart through the electrocardiogram for one hour, the compound was administered to the physiological solution, and the electrocardiogram was measured in 30 minutes later so as to analyze the Q-T interval.
Using dofetilide as a control drug, the effect of the compound according to the present disclosure (compound 43: compound of Synthesis Example 1) on the QT interval of ECG was confirmed in normal rabbits.
Rabbits were prepared under the same conditions as in 1) and divided into a normal group, a dofetilide-treated group, and a compound 43-treated group, after which the hearts of the rabbits were extracted according to the Langendorff experimental method in 2-2), so as to analyze the Q-T interval according to 2-3), and the results thereof are shown in FIGS. 5 and 6 and in Tables 2 and 3 below. In above FIGS. 5 and 6 and Tables 2 and 3, the Control may refer to a normal group, and all data values in Tables 2 and 3 are expressed as mean standard error.

isolated rabbit heart = experiment: Langendorff evaluation of ventricular functions in heart damage mimicking conditions (Tachycardia pacing)
Description: The Langendorff test method was used to evaluate the therapeutic effect of the compound on heart damage. The Langendorff test method is known as a test method that helps to determine the direct effect of the compound on the heart in terms of efficacy and safety. In particular, the method is easy to measure actual cardiac contractility and heart rates by removing peripheral hemodynamic variables that may extracardially interfere in experimental animals, and has the advantage of being able to intensively investigate a correlation between chemical structure and pharmacological action using various doses of the compound.
as §1
After confirming the stabilization state of the heart for one hour through an electrocardiogram, a heart damage stimulation with 50 Hz tachycardia pacing was applied for 30 minutes. After measuring the electrocardiogram of the atrium and ventricle, a test target compound (compound 43: the compound of […]) was administered to physiological solution, and the electrocardiogram was measured in one hour later. In order to check whether a drug effect is maintained even after the compound is removed from the physiological solution, the physiological solution containing the compound, in which the rabbit heart was immersed, was washed out, and the physiological solution without the compound was administered, so as to measure the electrocardiogram in one hour later.
The effect of the compound on improving ventricular functions was analyzed in ex vivo heart damage mimicking conditions (Tachycardia pacing), and the results thereof are shown in FIGS. 3 and 4 and Table 1. In above FIG. 4, ** on the graph may refer to P<0.01 when compared with the normal group(Sham), and ## may mean P<0.01 when compared with Tachycardia pacing (Comparative group, vehicle).

[3] = test system: beagle dogs with induced heart disease; experiment: Anti-fibrotic activity in tachycardia pacing heart disease model (western blot of cardiac tissue); format: in vivo, beagle dog; conditions: 1 mg/kg capsule, Bid, P.O.; tachycardia pacing 400 bpm; compared to group not dosed (FIG. 7)
Protocol: For the introduction of anesthetic to the beagle dogs (male, 11 months old), pentobarbital (25 mg/kg) was intravenously administered thereto, and anesthesia was maintained through Isoflurane. A pacemaker's in vivo implantable electrode (bipolar pacing lead, Medtronic, IRE) was placed in the right atrial appendage by using C-arm (ARCADIS Varic, SIEMENS Co.) equipment and vascular contrast media, and then it was checked if the same was correctly inserted through a contrast image, and then the pacemaker's lead was fixed in the right atrial appendage. After stabilization for one week after surgery, the pacemaker was operated at 400 bpm to confirm normal induction by electrocardiography, and then tachycardia pacing was induced. Hemodynamic parameters for each group were measured. […]
In order to confirm the effect of the compound according to the present disclosure on preventing or treating heart failure disease, the expression of α-SMA and TGF-β, which are directly related to fibrosis in cardiac tissues, was analyzed. […] The expression of α-SMA and TGF-β was analyzed for each protein through western blot, so as to compare the degree of cardiac fibrosis between groups, and the results thereof are shown in FIG. 7.

[4] = test system: iPSC-CM myocardial cells derived from patients with dilated cardiomyopathy (DCMP) heart failure; experiment: Ca2+ transient activity in DCMP iPSC-CM accompanied by TPM1 mutation; format: cell-based, human; conditions: 0.1-3 μM for 24 hours, 3 Hz stimulation 24 hours, Fluo-4 (FIG. 9)
Protocol: In order to confirm the effect of the compound according to the present disclosure on preventing or treating heart failure disease, Ca^2+ transients in iPSC-CM myocardial cells derived from patients with dilated cardiomyopathy (DCMP) heart failure were analyzed.
Myocardial cells derived from patients with heart failure were treated with compound 43 (Synthesis Example 1) for each concentration for 24 hours. After that, 3 Hz stimulation was given to both iPSC-CM myocardial cells derived from normal people (normal group, Normal) and iPSC-CM myocardial cells derived from patients with dilated cardiomyopathy (DCMP) heart failure for 24 hours in heart damage mimicking conditions (Tachycardia pacing). After each group was treated with Fluo-4 (AM, cell permeant-Thermo Fisher Scientific), a cell-permeable calcium dye, Ca^2+ images were taken in real time with a confocal microscope, so as to compare and analyze Ca^2+ transients between groups. Then, the results of the cells obtained from normal people are shown in FIG. 8, while the results of the cells obtained from patients with DCMP heart failure are shown in FIG. 9. Normal in above FIG. 8 may refer to myocardial cells not treated with Tachycardia pacing, and 0, 0.1, 1 and 3 in FIGS. 8 and 9 may represent the concentrations of compound 43 (compound of Synthesis Example 1) in cells treated with Tachycardia pacing. […]

[5] = test system: acetylated tubulin in atrial and ventricular tissues; experiment: Acetylated tubulin in atrial and ventricular tissues in heart damage mimicking conditions (Tachycardia pacing); parameters: species or system Rabbit; conditions: compound in physiological solution, western blot, compared to vehicle (FIGS. 10 and 11)
Protocol: Male rabbits were prepared in the same manner as in Example 1, and the rabbits were divided into a normal group (Sham), a drug-untreated group (vehicle), and a drug-treated group (Compound).
After that, the heart was evaluated by the Langendorff experimental method as in 2-1) of 2) in Example 2. For the drug-treated group, the heart was treated with the drug by administering compound 43 (compound according to Synthesis Example 1) to physiological solution as in 2-2) of 2) in Example 2.
Then, the atria and the ventricles were separated, and then proteins were isolated from each tissue. The expression of acetylated tubulin was analyzed for each protein through western blot, so as to compare the expression levels between groups, and the results thereof are shown in FIGS. 10 and 11. * may mean P<0.05, ** may refer to P<0.01, and *** may represent less than P<0.001.

O=C(N1CCS(=O)(=O)CC1)N(Cc1ccc(-c2nnc(C(F)F)o2)cn1)c1cccc(Cl)c1 [Compound 239, N-(3-chlorophenyl)-N-((5-(5-(difluoromethyl)-1,3,4-oxadiazol-2-yl)pyridin-2-yl)methyl)thiomorpholine-4-carboxamide 1,1-dioxide]
concentration of acetyl tubulin in H9c2 cells [1]: increase the concentration of acetyl tubulin in H9c2 cells in a concentration-correlated manner

O=C(N1CCS(=O)(=O)CC1)N(Cc1ccc(-c2nnc(C(F)F)o2)cc1F)c1ccc(F)cc1 [Compound 285, N-(4-(5-(difluoromethyl)-1,3,4-oxadiazol-2-yl)-2-fluorobenzyl)-N-(4-fluorophenyl)thiomorpholine-4-carboxamide 1,1-dioxide]
concentration of acetyl tubulin in H9c2 cells [1]: increase the concentration of acetyl tubulin in H9c2 cells in a concentration-correlated manner

O=C(N1CCS(=O)(=O)CC1)N(Cc1ccc(-c2nnc(C(F)F)o2)cn1)c1cccc(F)c1 [Compound 296, N-((5-(5-(difluoromethyl)-1,3,4-oxadiazol-2-yl)pyridin-2-yl)methyl)-N-(3-fluorophenyl)thiomorpholine-4-carboxamide 1,1-dioxide]
concentration of acetyl tubulin in H9c2 cells [1]: increase the concentration of acetyl tubulin in H9c2 cells in a concentration-correlated manner

CN(CCOc1ccc(NS(C)(=O)=O)cc1)CCc1ccc(NS(C)(=O)=O)cc1 [Dofetilide, dofetilide]
Q-T interval ([2]; 0.3 μM): 199.2 ± 17.8 ms | Q-T interval ([2]; 1 μM): 205.4 ± 26.3 ms | effect on QT interval compared to normal ECG (in words) [2]: increased at both 0.3 μM and 1 μM

O=C(N1CCS(=O)(=O)CC1)N(Cc1ccc(-c2nnc(C(F)F)o2)cc1F)c1ccccc1 [Compound 40, N-(4-(5-(difluoromethyl)-1,3,4-oxadiazol-2-yl)-2-fluorobenzyl)-N-phenylthiomorpholine-4-carboxamide 1,1-dioxide]
concentration of acetyl tubulin in H9c2 cells [1]: increase the concentration of acetyl tubulin in H9c2 cells in a concentration-correlated manner

O=C(N1CCS(=O)(=O)CC1)N(Cc1ccc(-c2nnc(C(F)F)o2)cn1)c1ccccc1 [compound 43, N-((5-(5-(difluoromethyl)-1,3,4-oxadiazol-2-yl)pyridin-2-yl)methyl)-N-phenylthiomorpholine-4-carboxamide 1,1-dioxide]
concentration of acetyl tubulin in H9c2 cells [1]: increase the concentration of acetyl tubulin in H9c2 cells in a concentration-correlated manner | R-R interval, Average (isolated rabbit heart; 1 μM in physiological solution, ECG one hour later, after 50 Hz tachycardia pacing for 30 minutes): 240.8 ms | electrocardiogram (ventricular functions) (isolated rabbit heart; 1 μM, tachycardia pacing (FIG. 3)): improved to a degree of the normal group (Control) | cardioversion effect after the compound is removed (isolated rabbit heart; after wash out of 1 μM compound (FIG. 3)): maintained for at least one hour | R-R interval, Average, Wash out (isolated rabbit heart; one hour after compound washed out of physiological solution, after 50 Hz tachycardia pacing): 239.9 ms | Q-T interval ([2]; 1 μM): 125.4 ± 1.7 ms | effect on QT interval compared to normal ECG (in words) [2]: not affected | expression of TGF-β in cardiac tissue [3]: reduced expression | expression of α-SMA in cardiac tissue [3]: reduced expression | Ca2+ transients [4]: Ca^2+ transients are recovered | expression of acetylated tubulin in atria and ventricles [5]: restored to that of the normal group (Sham)

O=C(N1CCS(=O)(=O)CC1)N(Cc1ccc(-c2nnc(C(F)F)o2)cn1)c1ccc(F)cc1 [Compound 295, N-((5-(5-(difluoromethyl)-1,3,4-oxadiazol-2-yl)pyridin-2-yl)methyl)-N-(4-fluorophenyl)thiomorpholine-4-carboxamide 1,1-dioxide]
concentration of acetyl tubulin in H9c2 cells [1]: increase the concentration of acetyl tubulin in H9c2 cells in a concentration-correlated manner
